Usually IC50 stands for the point on the concentration scale where inhibition reaches its midpoint.

A value given as a limit tells only on which side of the number the result lay.

Assay [1] has as its system T47D (PI3Kα-H1047R) cell line. In words: HTRF phospho-AKT(S473) cell assay in T47D cells. The format is cell-based, human. The settings on record: Homo sapiens; T47D (PI3Kα-H1047R) cells, HTRF phospho-AKT(S473), 2 hours compound incubation. A digest of the protocol:
(§1)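 pAKT(S473) in lysates read by HTRF after a 2 h, 37 °C compound exposure (12-point 1:3 series, max 0.5% DMSO). SKBR3 (wild type, top 10 μM) received 70 ng/ml PDGF-BB during the final 15 min; T47D (H1047R, top 5 μM) was unstimulated. IC50 values derived from the dose-response.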

Assay [2] deals with PI3Kα (Homo sapiens, UniProt P42336). In words: PI3Kα enzyme assay (Transcreener ADP2 TR-FRET Red Assay). The assay is classed as biochemical. The note with it: purified recombinant full-length protein; 2 hours pre-incubation with compound; read-out: PI3Kα WT IC50. Put shortly:
(§2)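 IC50 taken at 50 POC from a four-parameter logistic fit of TR-FRET (665/615 nm) ADP signal. Reactions used full-length recombinant enzyme, compound pre-incubation for 2 h, then 60 min with ATP and PI(4,5)P2 diC8 substrate at room temperature, pH 7.5 HEPES buffer with 25 mM MgCl2; compounds tested from 50,000 to 0.85 nM.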

Assay [3] has as its target PI3Kα H1047R (Homo sapiens, UniProt P42336, H1047R). In words: PI3Kα H1047R enzyme assay (Transcreener ADP2 TR-FRET Red Assay). The format is biochemical. The settings on record: purified recombinant full-length protein; 2 hours pre-incubation with compound. A digest of the protocol:
as §2

The test system of assay [4] is SKBR3 (PI3Kα-Wild Type) cell line. The experiment in a line: HTRF phospho-AKT(S473) cell assay in SKBR3 cells. The format is cell-based, human. The settings on record: Homo sapiens, SK-BR-3; SKBR3 (PI3Kα-Wild Type) cells, HTRF phospho-AKT(S473), 2 hours compound incubation, PDGF-BB stimulated. Put shortly:
as §1
A general note: Time-resolved FRET reads energy transfer from a long-lived donor to a nearby acceptor.

PI3Kα, sequence (P42336 whole entry): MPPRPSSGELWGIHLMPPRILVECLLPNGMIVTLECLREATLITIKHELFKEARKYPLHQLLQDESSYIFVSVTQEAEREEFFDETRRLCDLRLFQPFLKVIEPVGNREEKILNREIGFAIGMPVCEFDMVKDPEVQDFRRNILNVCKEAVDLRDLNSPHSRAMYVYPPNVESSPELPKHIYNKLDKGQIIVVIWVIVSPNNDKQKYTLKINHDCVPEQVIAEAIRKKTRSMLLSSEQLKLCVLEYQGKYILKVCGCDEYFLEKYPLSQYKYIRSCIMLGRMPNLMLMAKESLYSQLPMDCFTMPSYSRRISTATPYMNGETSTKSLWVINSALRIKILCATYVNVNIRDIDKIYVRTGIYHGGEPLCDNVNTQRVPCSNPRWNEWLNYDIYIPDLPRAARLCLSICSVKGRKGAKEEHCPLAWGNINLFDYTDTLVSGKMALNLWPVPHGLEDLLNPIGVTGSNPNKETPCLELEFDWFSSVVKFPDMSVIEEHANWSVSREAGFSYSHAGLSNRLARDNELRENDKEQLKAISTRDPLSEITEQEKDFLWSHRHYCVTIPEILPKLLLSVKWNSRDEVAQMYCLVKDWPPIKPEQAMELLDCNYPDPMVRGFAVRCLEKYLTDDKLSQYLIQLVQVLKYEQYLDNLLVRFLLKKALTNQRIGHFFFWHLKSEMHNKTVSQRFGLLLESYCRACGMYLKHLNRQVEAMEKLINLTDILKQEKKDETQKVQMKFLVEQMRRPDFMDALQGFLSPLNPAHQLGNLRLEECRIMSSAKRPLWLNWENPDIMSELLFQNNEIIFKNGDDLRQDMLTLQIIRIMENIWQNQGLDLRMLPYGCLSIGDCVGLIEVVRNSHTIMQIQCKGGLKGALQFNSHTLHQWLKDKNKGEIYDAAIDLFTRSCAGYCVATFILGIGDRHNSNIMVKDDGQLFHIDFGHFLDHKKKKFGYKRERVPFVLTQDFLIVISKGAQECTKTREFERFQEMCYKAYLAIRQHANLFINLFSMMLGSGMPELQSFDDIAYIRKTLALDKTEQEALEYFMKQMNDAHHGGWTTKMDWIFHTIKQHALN
PI3Kα, sequence (P27986 2-724 partner): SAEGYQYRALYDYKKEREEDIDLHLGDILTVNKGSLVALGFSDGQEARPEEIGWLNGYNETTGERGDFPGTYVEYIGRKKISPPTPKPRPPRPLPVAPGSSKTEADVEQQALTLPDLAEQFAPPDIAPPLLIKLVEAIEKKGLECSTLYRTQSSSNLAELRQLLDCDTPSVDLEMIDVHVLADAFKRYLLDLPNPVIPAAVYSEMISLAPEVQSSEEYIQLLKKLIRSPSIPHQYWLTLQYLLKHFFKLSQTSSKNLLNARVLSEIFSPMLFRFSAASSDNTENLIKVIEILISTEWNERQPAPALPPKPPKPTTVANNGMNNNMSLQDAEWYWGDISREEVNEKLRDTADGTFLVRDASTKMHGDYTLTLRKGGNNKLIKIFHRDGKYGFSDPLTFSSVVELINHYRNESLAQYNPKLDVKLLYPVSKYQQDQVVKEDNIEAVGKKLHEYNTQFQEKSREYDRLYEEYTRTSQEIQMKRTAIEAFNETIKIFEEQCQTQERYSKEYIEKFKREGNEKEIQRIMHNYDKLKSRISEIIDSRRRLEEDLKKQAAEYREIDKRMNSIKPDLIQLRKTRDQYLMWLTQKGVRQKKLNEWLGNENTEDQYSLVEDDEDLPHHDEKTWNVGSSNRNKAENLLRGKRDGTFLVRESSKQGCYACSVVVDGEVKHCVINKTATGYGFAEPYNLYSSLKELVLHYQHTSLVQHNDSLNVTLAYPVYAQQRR
PI3Kα H1047R, sequence (P42336 whole entry H1047R): as the sequence (P42336 whole entry) above, with H1047R counted along it
PI3Kα H1047R, sequence (P27986 2-724 partner): as the sequence (P27986 2-724 partner) above

Consider `Cc1cc([C@@H](C)Nc2ccc(Cl)[nH]c2=O)c2nc(N3Cc4ccc(F)cc4C3)n(C)c(=O)c2c1` [Compound 93, (R)-8-(1-((6-chloro-2-oxo-1,2-dihydropyridin-3-yl)amino)ethyl)-2-(5-fluoroisoindolin-2-yl)-3,6-dimethylquinazolin-4(3H)-one], for which the IC50 in assay [1] was below 250 nM; in assay [2], at least 1000 nM; in assay [3], at least 1000 nM; in assay [4] it was at least 5 µM.

On to `Cc1cc([C@@H](C)Nc2cn(C)nc2C(=O)NS(C)(=O)=O)c2nc(N3Cc4ccc(F)cc4C3)n(C)c(=O)c2c1` (single isomer, unassigned) [Compound 106, 4-((1-(2-(5-fluoroisoindolin-2-yl)-3,6-dimethyl-4-oxo-3,4-dihydroquinazolin-8-yl)ethyl)amino)-1-methyl-N-(methylsulfonyl)-1H-pyrazole-3-carboxamide], for which the half-maximal inhibitory concentration (IC50) is 1000 to 5000 nM in assay [1], at least 1000 nM in assay [2], at least 1000 nM in assay [3] and at least 5 µM in assay [4].

In the case of `Cc1cc([C@@H](C)Nc2ccc(Cl)nc2C(=O)NS(C)(=O)=O)c2nc(NCCC3CC3)n(C)c(=O)c2c1` [Compound 18, (R)-6-chloro-3-((1-(2-((2-cyclopropylethyl)amino)-3,6-dimethyl-4-oxo-3,4-dihydroquinazolin-8-yl)ethyl)amino)-N-(methylsulfonyl) picolinamide], the IC50 is 1000 to 5000 nM in assay [1], at least 1000 nM in assay [2], at least 1000 nM in assay [3] and at least 5 µM in assay [4].

`Cc1cc([C@@H](C)Nc2cccnc2C(=O)NS(C)(=O)=O)c2nc(N3Cc4ccc(F)cc4C3)n(C)c(=O)c2c1` [Compound 58, (R)-3-((1-(2-(5-fluoroisoindolin-2-yl)-3,6-dimethyl-4-oxo-3,4-dihydroquinazolin-8-yl)ethyl)amino)-N-(methylsulfonyl) picolinamide]: the IC50 in assay [1] is 250 to 500 nM; in assay [2], at least 1000 nM; in assay [3] it was at least 1000 nM; in assay [4], 1 to 5 µM.

Regarding `Cc1cc([C@@H](C)Nc2ccc(Cl)nc2C(=O)NS(=O)(=O)N(C)C)c2nc(N3Cc4ccc(F)cc4C3)n(C)c(=O)c2c1` [Compound 67, (R)-6-chloro-N-(N,N-dimethyl-sulfamoyl)-3-((1-(2-(5-fluoro-isoindolin-2-yl)-3,6-dimethyl-4-oxo-3,4-dihydroquinazolin-8-yl)ethyl)amino)picolinamide], the IC50 in assay [1] was 500 to 1000 nM; in assay [2] it was at least 1000 nM; in assay [3], at least 1000 nM; in assay [4] it was at least 5 µM.

`C[C@@H](Nc1ccc(Cl)nc1C(=O)NS(C)(=O)=O)c1cccc2c(=O)n(C)c(N3Cc4ccc(F)cc4C3)nc12` [Compound 23, (R)-6-chloro-3-((1-(2-(5-fluoroisoindolin-2-yl)-3-methyl-4-oxo-3,4-dihydroquinazolin-8-yl)ethyl)amino)-N-(methylsulfonyl) picolinamide]: the IC50 in assay [1] was 500 to 1000 nM; in assay [2], at least 1000 nM; in assay [3] it was below 100 nM; in assay [4] it was 1 to 5 µM.

With `Cc1cc([C@@H](C)Nc2ccc(Cl)nc2C(=O)NS(C)(=O)=O)c2nc(NCC3CC3)n(C)c(=O)c2c1` [Compound 8, (R)-6-chloro-3-((1-(2-((cyclopropylmethyl)amino)-3,6-dimethyl-4-oxo-3,4-dihydroquinazolin-8-yl)ethyl)amino)-N-(methylsulfonyl) picolinamide], the IC50 in assay [1] was 250 to 500 nM; in assay [2], at least 1000 nM; in assay [3], 250 to 500 nM; in assay [4], 1 to 5 µM.

For `Cc1cc([C@@H](C)Nc2ccc(Cl)nc2C(=O)NS(C)(=O)=O)c2nc(OCC3CC3)n(C)c(=O)c2c1` [Compound 51, (R)-6-chloro-3-((1-(2-(cyclopropylmethoxy)-3,6-dimethyl-4-oxo-3,4-dihydroquinazolin-8-yl)ethyl)amino)-N-(methylsulfonyl) picolinamide], the IC50 in assay [1] is below 250 nM; in assay [2], at least 1000 nM; in assay [3], below 100 nM; in assay [4] it was 0.5 to 1 µM.

For the compound `COc1ccc(N[C@H](C)c2cc(C)cc3c(=O)n(C)c(N4Cc5ccc(F)cc5C4)nc23)c(C(=O)NS(C)(=O)=O)n1` [Compound 65, (R)-3-((1-(2-(5-fluoroisoindolin-2-yl)-3,6-dimethyl-4-oxo-3,4-dihydro-quinazolin-8-yl)ethyl)amino)-6-methoxy-N-(methylsulfonyl) picolinamide], the IC50 in assay [1] is 500 to 1000 nM; in assay [2], at least 1000 nM; in assay [3] it was at least 1000 nM; in assay [4], 1 to 5 µM.

Regarding `CNC(=O)NS(=O)(=O)c1nc(Cl)ccc1N[C@H](C)c1cc(C)cc2c(=O)n(C)c(N3Cc4ccc(F)cc4C3)nc12` [Compound 70, (R)-6-chloro-3-((1-(2-(5-fluoro-isoindolin-2-yl)-3,6-dimethyl-4-oxo-3,4-dihydroquinazolin-8-yl)ethyl)amino)-N-(methylcarb-amoyl)pyridine-2-sulfonamide], the IC50 was 1000 to 5000 nM in assay [1], at least 1000 nM in assay [2], 250 to 500 nM in assay [3] and at least 5 µM in assay [4].

For `Cc1cc([C@@H](C)Nc2ccc(Cl)nc2C(=O)NS(C)(=O)=O)c2nc(NC(C)(C)C)n(C)c(=O)c2c1` [Compound 7, (R)-3-((1-(2-(tert-butylamino)-3,6-dimethyl-4-oxo-3,4-dihydroquinazolin-8-yl)ethyl)amino)-6-chloro-N-(methylsulfonyl) picolinamide], the IC50 in assay [1] is 1000 to 5000 nM; in assay [2], at least 1000 nM; in assay [3], at least 1000 nM; in assay [4], at least 5 µM.

`C[C@@H](Nc1cccnc1C(=O)NS(C)(=O)=O)c1cccc2c(=O)n(C)c(N3Cc4ccc(F)cc4C3)nc12` [Compound 59, (R)-3-((1-(2-(5-fluoroisoindolin-2-yl)-3-methyl-4-oxo-3,4-dihydroquinazolin-8-yl)ethyl)amino)-N-(methylsulfonyl) picolinamide]: the concentration for half-maximal inhibition (IC50) is 1000 to 5000 nM in assay [1], at least 1000 nM in assay [2], at least 1000 nM in assay [3] and at least 5 µM in assay [4].

As to `Cc1cc([C@@H](C)Nc2ccc(Cl)nc2S(=O)(=O)NC(=O)C2CC2)c2nc(N3Cc4ccc(F)cc4C3)n(C)c(=O)c2c1` [Compound 79, (R)-N-((6-chloro-3-((1-(2-(5-fluoroisoindolin-2-yl)-3,6-dimethyl-4-oxo-3,4-dihydroquinazolin-8-yl)ethyl)amino)pyridin-2-yl)sulfonyl)cyclopropane-carboxamide], the IC50 was 250 to 500 nM in assay [1], at least 1000 nM in assay [2], 100 to 250 nM in assay [3] and at least 5 µM in assay [4].

As to `CC(=O)NS(=O)(=O)c1nc(Cl)ccc1N[C@H](C)c1cc(C)cc2c(=O)n(C)c(N3Cc4ccc(F)cc4C3)nc12` [Compound 74, (R)—N-((6-chloro-3-((1-(2-(5-fluoroisoindolin-2-yl)-3,6-dimethyl-4-oxo-3,4-dihydroquinazolin-8-yl)ethyl)amino)pyridin-2-yl)sulfonyl)acetamide], the IC50 in assay [1] is 250 to 500 nM; in assay [2], at least 1000 nM; in assay [3] it was 100 to 250 nM; in assay [4], at least 5 µM.

(Values after patent US12281122B1, “PI3K inhibitors” (Cogent Biosciences, Inc., priority 2023, dated 2025).)
